Assay results: ChEMBL document CHEMBL1687943, “Synthesis of new glycyrrhetinic acid derived ring A azepanone, 29-urea and 29-hydroxamic acid derivatives as selective 11β-hydroxysteroid dehydrogenase 2 inhibitors” (Bioorg Med Chem, 2011)

Assays:
[1] = molecular target: T1, 11-beta-hydroxysteroid dehydrogenase 1 (Homo sapiens, UniProt P28845); assay: Inhibition of human recombinant 11beta-HSD1 expressed in HEK293 cells assessed as conversion of [1,2-[3H]cortisone to cortisol after 10 mins by scintillation counting; type: cell-based
Target sequence in this assay (P28845 whole entry): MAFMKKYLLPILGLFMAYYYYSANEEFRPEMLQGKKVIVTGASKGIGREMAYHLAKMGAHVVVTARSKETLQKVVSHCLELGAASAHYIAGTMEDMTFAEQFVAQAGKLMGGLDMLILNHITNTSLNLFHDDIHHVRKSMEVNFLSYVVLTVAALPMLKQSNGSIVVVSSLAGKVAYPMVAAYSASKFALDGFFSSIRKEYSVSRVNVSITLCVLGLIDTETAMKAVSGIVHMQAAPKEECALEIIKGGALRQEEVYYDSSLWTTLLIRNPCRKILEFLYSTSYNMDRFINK

[2] = molecular target: T2, 11-beta-hydroxysteroid dehydrogenase type 2 (Homo sapiens, UniProt P80365); assay: Inhibition of human 11beta-HSD2 expressed in HEK293 cells assessed as conversion of [1,2,6,7-[3H]cortisol to cortisone after 10 mins by scintillation counting; type: cell-based
T2 sequence (P80365 whole entry): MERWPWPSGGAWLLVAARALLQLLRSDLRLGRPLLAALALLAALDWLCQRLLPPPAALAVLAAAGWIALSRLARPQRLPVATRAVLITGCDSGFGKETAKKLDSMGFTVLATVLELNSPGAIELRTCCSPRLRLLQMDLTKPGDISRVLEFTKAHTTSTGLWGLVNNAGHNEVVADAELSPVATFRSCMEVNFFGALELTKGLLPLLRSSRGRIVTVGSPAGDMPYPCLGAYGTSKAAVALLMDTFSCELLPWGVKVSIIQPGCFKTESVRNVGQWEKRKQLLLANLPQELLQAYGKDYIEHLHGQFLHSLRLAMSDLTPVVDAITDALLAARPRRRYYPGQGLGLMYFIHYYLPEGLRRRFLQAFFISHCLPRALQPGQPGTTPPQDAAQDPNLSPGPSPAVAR

[3] = molecular target: T1, 11-beta-hydroxysteroid dehydrogenase 1; details: HEK293, at 200 nM
Target sequence in this assay (P28845 whole entry, looked up): as the sequence (P28845 whole entry) above
Description: Inhibition of human recombinant 11beta-HSD1 expressed in HEK293 cells assessed as residual conversion of [1,2-[3H]cortisone to cortisol at 200 nM after 10 mins by scintillation counting

[4] = molecular target: T3, 11-beta-hydroxysteroid dehydrogenase type 2 (Homo sapiens) (UniProt P80365); details: HEK293, at 200 nM
T3 sequence (whole entry): T2 sequence (P80365 whole entry)
Description: Inhibition of human 11beta-HSD2 expressed in HEK293 cells assessed as residual conversion of [1,2,6,7-[3H]cortisol to cortisone at 200 nM after 10 mins by scintillation counting

[5] = molecular target: T1, 11-beta-hydroxysteroid dehydrogenase 1; details: HEK293, at 1000 nM
Target sequence in this assay (P28845 whole entry, looked up): as the sequence (P28845 whole entry) above
Description: Inhibition of human recombinant 11beta-HSD1 expressed in HEK293 cells assessed as residual conversion of [1,2-[3H]cortisone to cortisol at 1000 nM after 10 mins by scintillation counting

[6] = molecular target: T1, 11-beta-hydroxysteroid dehydrogenase 1; details: HEK293, at 1 µM
Target sequence in this assay (P28845 whole entry, looked up): as the sequence (P28845 whole entry) above
Description: Inhibition of human recombinant 11beta-HSD1 expressed in HEK293 cells assessed as conversion of [1,2-[3H]cortisone to cortisol at 1 uM after 10 mins by scintillation counting

[7] = molecular target: T3, 11-beta-hydroxysteroid dehydrogenase type 2 (Homo sapiens); details: HEK293, at 1000 nM
Description: Inhibition of human 11beta-HSD2 expressed in HEK293 cells assessed as residual conversion of [1,2,6,7-[3H]cortisol to cortisone at 1000 nM after 10 mins by scintillation counting

CC1(C)[C@@H](Oc2noc(=O)[nH]2)CC[C@]2(C)[C@H]3C(=O)C=C4[C@@H]5C[C@@](C)(NC(N)=O)CC[C@]5(C)CC[C@@]4(C)[C@]3(C)CC[C@@H]12 gave an IC50 [1] of over 40 µM, an IC50 [2] of over 4 µM and a residual activity [3] of 81%. The residual activity [4] was 24%.
With CN(O)C(=O)[C@@]1(C)CC[C@]2(C)CC[C@]3(C)C(=CC(=O)[C@@H]4[C@@]5(C)CCC(=O)NC(C)(C)[C@@H]5CC[C@]43C)[C@@H]2C1 the IC50 [1] was over 40 µM and the residual activity [3] was 73%.
Compound CC(=O)O[C@H]1CC[C@]2(C)[C@H]3C(=O)C=C4[C@@H]5C[C@@](C)(NC(=O)N(CCO)CCO)CC[C@]5(C)CC[C@@]4(C)[C@]3(C)CC[C@H]2C1(C)C has a residual activity [3] of 102% and a residual activity [4] of 93%.
Compound CC(=O)O[C@H]1CC[C@]2(C)[C@H]3C(=O)C=C4[C@@H]5C[C@@](C)(NC(=O)NCCO)CC[C@]5(C)CC[C@@]4(C)[C@]3(C)CC[C@H]2C1(C)C has a residual activity [3] of 97% and a residual activity [4] of 38%.
Compound CC(=O)O[C@H]1CC[C@]2(C)[C@H]3C(=O)C=C4[C@@H]5C[C@@](C)(C(=O)O)CC[C@]5(C)CC[C@@]4(C)[C@]3(C)CC[C@H]2C1(C)C has a residual activity [5] of 12%.
For CC(=O)O[C@H]1CC[C@]2(C)[C@H]3C(=O)C=C4[C@@H]5C[C@@](C)(NC(=O)NS(C)(=O)=O)CC[C@]5(C)CC[C@@]4(C)[C@]3(C)CC[C@H]2C1(C)C, the residual activity [3] was 90% and the residual activity [4] was 20%.
With CC(=O)O[C@H]1CC[C@]2(C)[C@H]3C(=O)C=C4[C@@H]5C[C@@](C)(NC(=O)N(C)O)CC[C@]5(C)CC[C@@]4(C)[C@]3(C)CC[C@H]2C1(C)C the residual activity [3] was 96% and the residual activity [4] was 110%.
Work on CC(=O)O[C@H]1CC[C@]2(C)[C@H]3C(=O)C=C4[C@@H]5C[C@@](C)(NC(=O)NO)CC[C@]5(C)CC[C@@]4(C)[C@]3(C)CC[C@H]2C1(C)C yielded a residual activity [3] of 92% and a residual activity [4] of 34%.
CC1(C)[C@@H](OC(=O)CCC(=O)O)CC[C@]2(C)[C@H]3C(=O)C=C4[C@@H]5C[C@@](C)(C(=O)O)CC[C@]5(C)CC[C@@]4(C)[C@]3(C)CC[C@@H]12 was tested, and the residual activity [5] was 12%.
CC1(C)C(=O)CC[C@]2(C)[C@H]3C(=O)C=C4[C@@H]5C[C@@](C)(NC(N)=O)CC[C@]5(C)CC[C@@]4(C)[C@]3(C)CC[C@@H]12 gave an IC50 [1] of over 10 µM.
CC1(C)[C@@H](O)CC[C@]2(C)[C@H]3C(=O)C=C4[C@@H]5C[C@@](C)(C(=O)O)CC[C@]5(C)CC[C@@]4(C)[C@]3(C)CC[C@@H]12 was tested, and the residual activity [5] was 16% and the inhibition [6] was 83.9%.
CC1(C)[C@@H](O)CC[C@]2(C)C3=CC(=O)[C@H]4[C@@H]5C[C@@](C)(C(=O)O)CC[C@]5(C)CC[C@@]4(C)[C@]3(C)CC[C@@H]12 showed a residual activity [3] of 77% and a residual activity [4] of 85%.
In the case of CC1(C)NC(=O)CC[C@]2(C)[C@H]3C(=O)C=C4[C@@H]5C[C@@](C)(C(=O)O)CC[C@]5(C)CC[C@@]4(C)[C@]3(C)CC[C@@H]12, the residual activity [5] is reported as 43% and the residual activity [7] is reported as 21%.
CC1(C)C(=O)CC[C@]2(C)[C@H]3C(=O)C=C4[C@@H]5C[C@@](C)(C(=O)O)CC[C@]5(C)CC[C@@]4(C)[C@]3(C)CC[C@@H]12 showed a residual activity [5] of 36%.
For CC(=O)N[C@H]1CC[C@]2(C)[C@H]3C(=O)C=C4[C@@H]5C[C@@](C)(C(=O)O)CC[C@]5(C)CC[C@@]4(C)[C@]3(C)CC[C@H]2C1(C)C, the residual activity [5] was 36% and the residual activity [7] was 0.2%.
Work on CC1(C)/C(=N/O)CC[C@]2(C)[C@H]3C(=O)C=C4[C@@H]5C[C@@](C)(C(=O)O)CC[C@]5(C)CC[C@@]4(C)[C@]3(C)CC[C@@H]12 yielded a residual activity [7] of 1%.
